Measured values as given in the NIST ThermoML archive (doi:10.1021/je200721d).

Assay: xn = mol fraction of the nth substance listed
Conditions: Liquid, Vibrating tube method

CCCCCCCCCC [decane] + CCCCCC
Conditions | mass density [kg/m3]
342.8 K, 1000 kPa, x2 = 0.8991 | 626.74
342.8 K, 2000 kPa, x2 = 0.8991 | 628.11
342.8 K, 3000 kPa, x2 = 0.8991 | 629.48
342.8 K, 4000 kPa, x2 = 0.8991 | 630.85
342.8 K, 5000 kPa, x2 = 0.8991 | 632.19
342.8 K, 6000 kPa, x2 = 0.8991 | 633.52
342.8 K, 7000 kPa, x2 = 0.8991 | 634.85
342.8 K, 8000 kPa, x2 = 0.8991 | 636.16
342.8 K, 9000 kPa, x2 = 0.8991 | 637.46
342.8 K, 10000 kPa, x2 = 0.8991 | 638.73
342.8 K, 11000 kPa, x2 = 0.8991 | 639.99
342.8 K, 12000 kPa, x2 = 0.8991 | 641.23
342.8 K, 13000 kPa, x2 = 0.8991 | 642.43
342.8 K, 14000 kPa, x2 = 0.8991 | 643.64
342.8 K, 15000 kPa, x2 = 0.8991 | 644.8
342.8 K, 16000 kPa, x2 = 0.8991 | 645.95
342.8 K, 17000 kPa, x2 = 0.8991 | 647.07
342.8 K, 18000 kPa, x2 = 0.8991 | 648.18
342.8 K, 19000 kPa, x2 = 0.8991 | 649.24
342.8 K, 20000 kPa, x2 = 0.8991 | 650.3
342.8 K, 21000 kPa, x2 = 0.8991 | 651.32
342.8 K, 22000 kPa, x2 = 0.8991 | 652.31
342.8 K, 23000 kPa, x2 = 0.8991 | 653.28
342.8 K, 24000 kPa, x2 = 0.8991 | 654.23
342.8 K, 25000 kPa, x2 = 0.8991 | 655.16
343.05 K, 1000 kPa, x2 = 0.0456 | 690.21
343.05 K, 2000 kPa, x2 = 0.0456 | 691.25
343.05 K, 3000 kPa, x2 = 0.0456 | 692.26
343.05 K, 4000 kPa, x2 = 0.0456 | 693.3
343.05 K, 5000 kPa, x2 = 0.0456 | 694.32
343.05 K, 6000 kPa, x2 = 0.0456 | 695.32
343.05 K, 7000 kPa, x2 = 0.0456 | 696.31
343.05 K, 8000 kPa, x2 = 0.0456 | 697.29
343.05 K, 9000 kPa, x2 = 0.0456 | 698.26
343.05 K, 10000 kPa, x2 = 0.0456 | 699.22
343.05 K, 11000 kPa, x2 = 0.0456 | 700.16
343.05 K, 12000 kPa, x2 = 0.0456 | 701.08
343.05 K, 13000 kPa, x2 = 0.0456 | 702
343.05 K, 14000 kPa, x2 = 0.0456 | 702.89
343.05 K, 15000 kPa, x2 = 0.0456 | 703.77
343.05 K, 16000 kPa, x2 = 0.0456 | 704.64
343.05 K, 17000 kPa, x2 = 0.0456 | 705.5
343.05 K, 18000 kPa, x2 = 0.0456 | 706.36
343.05 K, 19000 kPa, x2 = 0.0456 | 707.2
343.05 K, 20000 kPa, x2 = 0.0456 | 708.02
343.05 K, 21000 kPa, x2 = 0.0456 | 708.84
